US11077210B2, “Near-infrared fluorescent contrast bioimaging agents and methods of use thereof” (Beth Israel Deaconess Medical Center, priority 2013, dated 2021)

How the values were obtained:
ureters = experiment: Ureter NIR fluorescence imaging (FLARE); format: in vivo; details: 35 kg female pig, 5 μmol intravenously, waiting period 30 min, imaged over next 4 hours; Channel 1 (700 nm) or Channel 2 (800 nm)
Description: (§1) Absorbance and fluorescence emission spectra were measured using fiber optic HR2000 absorbance (200-1100 nm) and USB2000FL fluorescence (350-1000 nm) spectrometers (Ocean Optics, Dunedin, Fla.). Excitation was provided by a 532 nm green laser pointer (Opcom Inc., Xiamen, China) set to 5 mW, a 655 nm red laser pointer (Opcom Inc., Xiamen, China) set to 5 mW, or a 770 nm NIR laser diode light source (Electro Optical Components, Santa Rosa, Calif.) set to 10 mW and coupled through a 300 μm core diameter, NA 0.22 fiber (Fiberguide Industries, Stirling, N.J.). In silico calculations of the partition coefficient (log D at pH 7.4) and surface molecular charge and hydrophobicity were calculated using MarvinSketch 5.2.1 by taking major microspecies at pH 7.4 (ChemAxon, Budapest, Hungary). NIR Fluorescence Imaging System The dual-NIR channel FLARE′ imaging system has been described in detail previously (26-28). […] Color and two independent NIR fluorescence emission images (≈700 nm for Channel 1 and ≈800 nm for Channel 2) were acquired simultaneously with custom software at rates up to 15 Hz over a 15 cm diameter field of view. NIR fluorescence from Channel 1 was pseudo-colored in red and NIR fluorescence from Channel 2 was pseudo-colored in lime green prior to merger with the color video image. […] Animal Models and Intraoperative NIR Fluorescence Imaging […]

bile duct = experiment: Bile duct NIR fluorescence imaging (FLARE); format: in vivo; details: 35 kg female pig, 5 μmol intravenously, 4 hours; Channel 1 (700 nm) or Channel 2 (800 nm)
Description: as §1

thoracic duct = experiment: Thoracic duct NIR fluorescence imaging (FLARE); format: in vivo; details: 35 kg female pig, 5 μmol subcutaneously into the lower leg, 30 minutes; Channel 1 (700 nm) or Channel 2 (800 nm)
Description: as §1

pan lymph nodes = experiment: Pan lymph node NIR fluorescence imaging (FLARE); format: in vivo; details: 250 g male rat, 20 nmol intravenously, 4 hours; Channel 1 (700 nm) or Channel 2 (800 nm)
Description: as §1

white adipose tissue = experiment: White adipose tissue NIR fluorescence imaging (FLARE); format: in vivo; details: 25 g male mouse, 25 nmol intravenously, 4 hours; Channel 1 (700 nm) or Channel 2 (800 nm)
Description: as §1

pancreas = experiment: Pancreas NIR fluorescence imaging (FLARE); format: in vivo; details: 35 kg female pig, 5 μmol intravenously, 4 hours; Channel 1 (700 nm) or Channel 2 (800 nm)
Description: as §1

pituitary gland = experiment: Pituitary gland NIR fluorescence imaging (FLARE); format: in vivo; details: 25 g male mouse, 25 nmol intravenously, 4 hours; Channel 1 (700 nm) or Channel 2 (800 nm)
Description: as §1

adrenal = experiment: Adrenal NIR fluorescence imaging (FLARE); format: in vivo; details: 35 kg female pig, 5 μmol intravenously, 4 hours; Channel 1 (700 nm) or Channel 2 (800 nm)
Description: as §1

ovaries = experiment: Ovary NIR fluorescence imaging (FLARE); format: in vivo; details: 25 g female mouse, 25 nmol intravenously, 4 hours; Channel 1 (700 nm) or Channel 2 (800 nm)
Description: as §1

spleen = experiment: Spleen NIR fluorescence imaging (FLARE); format: in vivo; details: 25 g male mouse, 25 nmol intravenously, 4 hours; Channel 1 (700 nm) or Channel 2 (800 nm)
Description: as §1

seminal vesicle = experiment: Seminal vesicle NIR fluorescence imaging (FLARE); format: in vivo; details: 25 g male mouse, 25 nmol intravenously, 4 hours; Channel 1 (700 nm) or Channel 2 (800 nm)
Description: as §1

salivary glands = experiment: Salivary gland NIR fluorescence imaging (FLARE); format: in vivo; details: 25 g male mouse, 25 nmol intravenously, 4 hours; Channel 1 (700 nm) or Channel 2 (800 nm)
Description: as §1

stem cells = experiment: Stem cell tracking: NIR fluorescence microscopy of labelled cells; format: cell-based; details: 2 μM, 30 min incubation at 37° C., fixed in 2% paraformaldehyde, 10 μm sections; fluorescence microscope Channel 1 (700 nm) or Channel 2 (800 nm)
brown fat = experiment: Brown adipose tissue NIR fluorescence imaging (FLARE); format: in vivo; details: 25 g male mouse, 25 nmol intravenously, 4 hours; Channel 1 (700 nm) or Channel 2 (800 nm)
Description: as §1

parathyroid = experiment: Parathyroid NIR fluorescence imaging (FLARE); format: in vivo; details: 35 kg female pig, 5 μmol intravenously, 4 hours; Channel 1 (700 nm) or Channel 2 (800 nm)
Description: as §1

thyroid = experiment: Thyroid NIR fluorescence imaging (FLARE); format: in vivo; details: 35 kg female pig, 5 μmol intravenously, 4 hours; Channel 1 (700 nm) or Channel 2 (800 nm)
Description: as §1

choroid plexus = experiment: Choroid plexus NIR fluorescence imaging (FLARE); format: in vivo; details: 25 g male mouse, 25 nmol intravenously, 4 hours; Channel 1 (700 nm) or Channel 2 (800 nm)
Description: as §1

CSF = CSF NIR fluorescence imaging (FLARE); format: in vivo; details: 35 kg female pig, 5 μmol intravenously, 4 hours; Channel 1 (700 nm) or Channel 2 (800 nm)
Description: as §1

brain grey matter = experiment: Brain grey matter NIR fluorescence imaging (FLARE); format: in vivo; details: 25 g male mouse, 25 nmol intravenously, 4 hours; Channel 1 (700 nm) or Channel 2 (800 nm)
Description: as §1

gallbladder = experiment: Gallbladder NIR fluorescence imaging (FLARE); format: in vivo; details: 25 g male mouse, 25 nmol intravenously, 4 hours; Channel 1 (700 nm) or Channel 2 (800 nm)
Description: as §1

CC1(C)C(/C=C/C2=C(c3ccc(CCC(=O)O)cc3)C(=C/C=C3/N(CCC[N+](C)(C)C)c4ccc(S(=O)(=O)O)cc4C3(C)C)/CCC2)=[N+](CCC[N+](C)(C)C)c2ccc(S(=O)(=O)O)cc21 [A71]
NIR fluorescence contrast of the ureter (ureters): highlighted with high contrast

CC1(C)C(/C=C/C(Br)=C/C=C2/N(CCC[N+](C)(C)C)c3ccc(S(=O)(=O)O)cc3C2(C)C)=[N+](CCC[N+](C)(C)C)c2ccc(S(=O)(=O)O)cc21 [A106]
NIR fluorescence contrast of the bile duct (bile duct): highlighted with high contrast
NIR fluorescence contrast of the thoracic duct (thoracic duct): highlighted with high contrast

CC1(C)C(/C=C/C(Br)=C/C=C2/N(CCC[N+](C)(C)C)c3ccc(Br)cc3C2(C)C)=[N+](CCC[N+](C)(C)C)c2ccc(Br)cc21 [A150]
NIR fluorescence contrast of all lymph nodes (pan lymph nodes): highlighted with high contrast

CCCCN1/C(=C/C=C/C=C/C=C/C2=[N+](CCCC)c3ccc(Cl)cc3C2(C)C)C(C)(C)c2cc(Cl)ccc21 [AH34]
NIR fluorescence contrast of the white adipose tissue (white adipose tissue): highlighted with high contrast

COc1ccc2c(c1)C(C)(C)C(/C=C/C=C/C=C/C=C1/N(C)c3ccc(OC)cc3C1(C)C)=[N+]2C [AL22]
NIR fluorescence contrast of the pancreas (pancreas): highlighted with high contrast
NIR fluorescence contrast of the pituitary gland (pituitary gland): highlighted with high contrast

CCCCN1/C(=C/C=C/C=C/C=C/C2=[N+](CCCC)c3ccccc3C2(C)C)C(C)(C)c2ccccc21 [AL27]
NIR fluorescence contrast of the adrenal (adrenal): highlighted with high contrast
NIR fluorescence contrast of the ovaries (ovaries): highlighted with high contrast

CC1(C)C(/C=C/C=C/C=C/C=C2/N(CCCc3ccccc3)c3ccccc3C2(C)C)=[N+](CCCc2ccccc2)c2ccccc21 [AL29]
NIR fluorescence contrast of the spleen (spleen): highlighted with high contrast

CC1(C)C(/C=C/C2=C(Sc3ccc(CC(=O)O)cc3)C(=C/C=C3/N(CCC[N+](C)(C)C)c4ccc(S(=O)(=O)O)cc4C3(C)C)/CCC2)=[N+](CCC[N+](C)(C)C)c2ccc(S(=O)(=O)O)cc21 [CNN2]
NIR fluorescence contrast of the seminal vesicle (seminal vesicle): highlighted with high contrast

CC1(C)C(/C=C/C=C/C=C2/N(CCCc3ccccc3)c3ccc4ccccc4c3C2(C)C)=[N+](CCCc2ccccc2)c2ccc3ccccc3c21 [E16]
NIR fluorescence contrast of the adrenal (adrenal): highlighted with high contrast

CC1(C)C(/C=C/C(Br)=C/C=C2/N(CCCc3ccccc3)c3ccc4ccccc4c3C2(C)C)=[N+](CCCc2ccccc2)c2ccc3ccccc3c21 [E24]
NIR fluorescence contrast of the spleen (spleen): highlighted with high contrast

CC1(C)C(/C=C/C(=C/C=C2/N(CCC[N+](C)(C)C)c3ccc(S(=O)(=O)O)cc3C2(C)C)Oc2ccc(CCC(=O)O)cc2)=[N+](CCC[N+](C)(C)C)c2ccc(S(=O)(=O)O)cc21 [LN15]
NIR fluorescence contrast of the ureter (ureters): highlighted with high contrast

CC1(C)C(/C=C/C2=C(NCCc3ccc(N)cc3)C(=C/C=C3/N(CCC[N+](C)(C)C)c4ccc(S(=O)(=O)O)cc4C3(C)C)/CCC2)=[N+](CCC[N+](C)(C)C)c2ccc(S(=O)(=O)O)cc21 [LN65]
NIR fluorescence contrast of the seminal vesicle (seminal vesicle): highlighted with high contrast

CN1\C(=C/C=C/C=C/C2=[N+](C)c3cc4c(cc3C2(C)C)OCO4)C(C)(C)c2cc3c(cc21)OCO3 [NRB1]
NIR fluorescence contrast of the salivary glands (salivary glands): highlighted with high contrast

CCN(CC)c1ccc(/C=C/C2=CC(/C=C/c3ccc(N(CC)CC)cc3)=[O+][B-](F)(F)O2)cc1 [PS31]
NIR fluorescence contrast of the white adipose tissue (white adipose tissue): highlighted with high contrast

CCN1/C(=C/C=C2\CCCC(/C=C/C3=[N+](CC)c4ccccc4C3(C)C)=C2Oc2ccc(CCN)cc2)C(C)(C)c2ccccc21 [PS126]
NIR fluorescence contrast of the cytoplasm of cell (stem cells): highlighted with high contrast

CCN1/C(=C/C=C(/C=C/C2=[N+](CC)c3ccccc3C2(C)C)Oc2ccc(CCN)cc2)C(C)(C)c2ccccc21 [PS127]
NIR fluorescence contrast of the cytoplasm of cell (stem cells): highlighted with high contrast

CN1/C(=C/C=C/C=C/C=C/C2=[N+](C)c3ccc(Br)cc3C2(C)C)C(C)(C)c2cc(Br)ccc21 [QBN1]
NIR fluorescence contrast of the brown fat (brown fat): highlighted with high contrast

CN1/C(=C/C=C/C=C/C=C/C2=[N+](C)c3ccc(F)cc3C2(C)C)C(C)(C)c2cc(F)ccc21 [QBN14]
NIR fluorescence contrast of the parathyroid (parathyroid): highlighted with high contrast
NIR fluorescence contrast of the thyroid (thyroid): highlighted with high contrast

CN1/C(=C/C=C/C=C/c2sc3ccccc3[n+]2C)Sc2ccccc21 [SP28]
NIR fluorescence contrast of the choroid plexus (choroid plexus): highlighted with high contrast

CCCCN1/C(=C/C=C/C=C/c2sc3ccccc3[n+]2CCCC)Sc2ccccc21 [SP30]
NIR fluorescence contrast of the brown fat (brown fat): highlighted with high contrast

CCN1/C(=C/C=C/C=C/c2sc3cc(C)ccc3[n+]2CC)Sc2cc(C)ccc21 [SP60]
NIR fluorescence contrast of the pituitary gland (pituitary gland): highlighted with high contrast

CN(C)CCCN1/C(=C/C=C/C=C/c2sc3cc(O)ccc3[n+]2CCCN(C)C)Sc2cc(O)ccc21 [SP66]
NIR fluorescence contrast of the CSF (CSF): highlighted with high contrast

CN1/C(=C/C=C/C=C/C2=[N+](C)c3ccc(F)cc3C2(C)C)C(C)(C)c2cc(F)ccc21 [T14]
NIR fluorescence contrast of the parathyroid (parathyroid): highlighted with high contrast
NIR fluorescence contrast of the pancreas (pancreas): highlighted with high contrast
NIR fluorescence contrast of the thyroid (thyroid): highlighted with high contrast

CCN(CC)c1ccc2nc3ccc(=[N+](CC)CC)cc-3oc2c1 [WuA96]
NIR fluorescence contrast of the brain grey matter (brain grey matter): highlighted with high contrast

CCCC[N+]1=C(/C=C/C=C/C=C/C=C2/N(C)c3ccccc3C2(C)C)C(C)(C)c2cc(OC)ccc21 [ZK189]
NIR fluorescence contrast of the brain grey matter (brain grey matter): highlighted with high contrast

CN1/C(=C/C2=CC3=C/C(=C/c4sc5cc(O)ccc5[n+]4C)CCC3CC2)Sc2cc(O)ccc21 (stereo not drawn) [ZK198]
NIR fluorescence contrast of the bile duct (bile duct): highlighted with high contrast
NIR fluorescence contrast of the gallbladder (gallbladder): highlighted with high contrast
NIR fluorescence contrast of the thoracic duct (thoracic duct): highlighted with high contrast

CN1/C(=C/C=C/C=C/C=C/c2sc3ccccc3[n+]2C)Sc2ccccc21 [ZK208]
NIR fluorescence contrast of the choroid plexus (choroid plexus): highlighted with high contrast

CNCCCN1/C(=C/C=C/C=C/c2sc3ccccc3[n+]2CCCNC)Sc2ccccc21 [ZK211]
NIR fluorescence contrast of the salivary glands (salivary glands): highlighted with high contrast
